Results on 29 compounds are retold here after patent US20240002380A1, “REV-ERB AGONISTS” (Saint Louis University, priority 2020, published 2024).

Like-named read-outs stand apart in the source and are kept apart here.

The term IC50 denotes the midpoint of a concentration-inhibition curve. One may read the AUC(0-inf) as total exposure, with the tail of the curve extrapolated. A low value points to low exposure. As a reminder, the AUC(0-t) is the area under the concentration-time curve up to a stated or last time point. High values mean more exposure, low ones less exposure. For orientation: CL/F means clearance divided by bioavailability, as obtained after extravascular dosing. For orientation: Cmax means the peak of the concentration-time curve. Broadly, the Tmax is the time from dosing to the highest level. For orientation: half-life means the time needed for the level to fall by half in the phase considered.

For data set [1], the target named is REV-ERBα (Homo sapiens (Human), UniProt P20393). Kind of data set: FRET assay for REV-ERB ligands (REV-ERBα LBD / NCoR ID2 peptide interaction). Format: biochemical. Particulars: TR-FRET, His-tagged REV-ERBα LBD, fluorescein NCoR ID2 peptide; read-out: RevErbα Inhibition IC50. As to the method:
(§1) Example A: FRET Assay for REV-ERB Ligands
(§2) The capacity for compounds to function as ligands for either REV-ERBα or REV-ERBβ was assessed using a fluorescent resonance energy transfer assay that detects the interaction between these receptors and the Nuclear Receptor Corepressor (NCoR) protein (the ID2 corepressor interaction domain peptides is used). This interaction is known to be ligand dependent and thus this assay that can detect an alteration of the affinity of these two proteins is able to detect ligands. The His-tagged ligand binding domain (LBD) of either REV-ERBα or REV-ERBβ and fluorescein labeled NCoR ID2 peptide (Life Technologies #PV4624) is used in these assays. The His-tagged LBDs were expressed in E. coli (amino acids 281-614 REV-ERBα and 381-579 REV-ERBβ) and labeled with a Terbium (Tb) labeled anti-His antibody (Life Technologies #PV5895). The assay buffer was PBS (phosphate buffered saline) with 5 mM DTT (dithiothreitol). The final concentration of various reagents in the assay are: REV-ERB LBD (either isoform) [5 nM], Fluorescein labeled NCoR ID2 peptide [250 nM], Tb labeled anti-his antibody [10 nM], dimethylsulfoxide [1%] and test compound [varying concentrations]. The assay was performed in Corning NBS black 384-well plates in a total volume of 20 μl. The assay plate was incubated for 1 hour at room temperature protected from light and then TR-FRET was assessed on a Biotek plate reader with the following excitation/emission pairs (340 nm/495 nm and 340 nm/520 nm. The 520 nm/495 nm emission signal ratio was used as an indicator of the degree of interaction between the LBD and NCoR peptide and EC50's were calculated using GraphPad Prizm software.
(In general: Time-resolved FRET reads energy transfer from a long-lived donor to a nearby acceptor.)

For data set [2], the target named is REV-ERBβ (Homo sapiens (Human), UniProt Q14995). Kind of data set: FRET assay for REV-ERB ligands (REV-ERBβ LBD / NCoR ID2 peptide interaction). It is filed as biochemical. As to conditions: TR-FRET, His-tagged REV-ERBβ LBD, fluorescein NCoR ID2 peptide; read-out: RevErbβ Inhibition IC50. As for the experimental part: as §1, §2
Data set [3] in a line: Plasma pharmacokinetics after intraperitoneal injection in mice. It is filed as in vivo. As to conditions: mouse, 5 mg/kg IP; for Vd/F: read-out: Vz/F. As to the method: Example B: Pharmacokinetics of Selected Compounds
Mice were injected intraperitoneally with (5 mg/kg) of the compound of Example 71 or Example 78 and plasma samples were taken at intervals of […], 0.25 hr, 0.5 hr. 1.0 hr, 3.0 hr, and 6.0 hr post-administration in order to analyze the pharmacokinetic profile of these compounds. The mean plasma content for male and for female mice at these time points post-injection are shown for Example 71 in FIG. 1A and Table 3, and for Example 78, in FIG. 1B and Table 4.

Data set [4] relates to senescence accelerated mouse P8 (SAMP8) mouse model. As to conditions: SAMP8 mice, AD-like pathology; cited from earlier work.

Sequence of REV-ERBβ (Q14995 381-579): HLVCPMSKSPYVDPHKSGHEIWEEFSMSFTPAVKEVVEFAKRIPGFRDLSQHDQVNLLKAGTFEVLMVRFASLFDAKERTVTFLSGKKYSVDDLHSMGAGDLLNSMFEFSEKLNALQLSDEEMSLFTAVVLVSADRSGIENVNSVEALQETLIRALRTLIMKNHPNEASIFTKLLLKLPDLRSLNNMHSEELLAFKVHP
Sequence of REV-ERBα (P20393 281-614): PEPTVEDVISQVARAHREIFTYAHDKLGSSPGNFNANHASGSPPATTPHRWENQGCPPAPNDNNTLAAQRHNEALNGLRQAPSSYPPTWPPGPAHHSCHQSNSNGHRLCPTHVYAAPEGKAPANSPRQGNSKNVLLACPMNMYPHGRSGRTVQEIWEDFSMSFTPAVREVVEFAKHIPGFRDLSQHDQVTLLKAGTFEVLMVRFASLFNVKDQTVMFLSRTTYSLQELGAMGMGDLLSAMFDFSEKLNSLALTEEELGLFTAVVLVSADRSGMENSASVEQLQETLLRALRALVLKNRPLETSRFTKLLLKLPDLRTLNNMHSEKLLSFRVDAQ

Regarding `Cn1ncc2cnc(Oc3ccccc3-c3cccnc3)nc21` [Example 10, 1-methyl-6-(2-(pyridin-3-yl)phenoxy)-1H-pyrazolo[3,4-d]pyrimidine], the IC50 in data set [1] and in data set [2] was not above 250 nM in each case.
As to `c1ccc2cc(Oc3ccc4ccncc4n3)ccc2c1` [Example 70, 2-(naphthalen-2-yloxy)-1,7-naphthyridine], in data set [1], the IC50 is not above 250 nM.
Consider `c1ccc(-c2ccccc2Oc2ccc3ncccc3n2)cc1` [Example 68, 2-([1,1′-biphenyl]-2-yloxy)-1,5-naphthyridine], for which the results for the IC50 in data set [1] and in data set [2] were 250 to 1000 nM and more than 1000 nM, respectively.
With `CNc1cccc(-c2ccccc2Oc2ncc3ccn(C)c3n2)c1` [Example 17, N-methyl-2′-(7-methyl-7H-pyrrolo[2,3-d]pyrimidin-2-yloxy)biphenyl-3-amine], in data set [1], the IC50 was not above 250 nM.
Take `Cc1nn(C)c2cnc(Oc3ccccc3-c3ccccc3)nc12` [Example 21, 5-([1,1′-biphenyl]-2-yloxy)-1,3-dimethyl-1H-pyrazolo[4,3-d]pyrimidine]: the 50% inhibitory concentration (IC50) in data set [1] is more than 1000 nM.
Turning to `c1ccc(C2CCCCC2)c(Oc2ccc3ccncc3n2)c1` [Example 48, 2-(2-cyclohexylphenoxy)-1,7-naphthyridine], the IC50 in data set [1] was not above 250 nM.
In the case of `FC(F)(F)c1ccccc1Oc1ccc2ccncc2n1` [Example 44, 2-(2-(trifluoromethyl)phenoxy)-1,7-naphthyridine], the 50% inhibitory concentration (IC50) in data set [2] was not above 250 nM.
In data set [3] (female mice), `Cc1cc(C)c(Oc2ccc3cnccc3n2)c(-c2ccccc2)c1` [Example 71, 2-((3,5-dimethyl-[1,1′-biphenyl]-2-yl)oxy)-1,6-naphthyridine] had an AUC(0-inf) of 172 ng·h/mL, an AUC(0-t) of 169 ng·h/mL, a CL/F of 484 mL/min/kg and a Cmax of 345 ng/mL. In data set [3] (female mice), the Tmax turned out to be 4.98 min, the half-life was 31.2 min and the Vd/F was determined as 21.9 L/kg. Also, in data set [3] (male mice), the AUC(0-inf) was 225 ng·h/mL, the AUC(0-t) came to 222 ng·h/mL, the apparent clearance CL/F was 371 mL/min/kg and the Cmax is 317 ng/mL. Also, in data set [3] (male mice), the Tmax is 4.98 min, the half-life was 28.2 min and the Vd/F came out at 15.2 L/kg.
Turning to `Cn1cnc2ccc(Oc3ccccc3-c3cccnc3)nc21` [Example 6, 3-methyl-5-(2-(pyridin-3-yl)phenoxy)-3H-imidazo[4,5-b]pyridine], the IC50 in data set [1] was not above 250 nM.
Turning to `c1ccc(-c2ccccc2Oc2ccc3cnccc3n2)nc1` [Example 45, 2-(2-(pyridin-2-yl)phenoxy)-1,6-naphthyridine], the IC50 is more than 1000 nM in data set [1] and not above 250 nM in data set [2].
For `c1ccc(-c2cccc(Oc3ccc4ccncc4n3)c2)cc1` [Example 51, 2-([1,1′-biphenyl]-3-yloxy)-1,7-naphthyridine], in data set [2], the IC50 was more than 1000 nM.
In the case of `c1ccc(-c2ccccc2Oc2ccc3cnccc3n2)cc1` [Example 24, 2-(biphenyl-2-yloxy)-1,6-naphthyridine], the IC50 in data set [1] was not above 250 nM.
Turning to `FC(F)(F)c1ccccc1Oc1ccc2cnccc2n1` [Example 46, 2-(2-(trifluoromethyl)phenoxy)-1,6-naphthyridine], the IC50 was 250 to 1000 nM in data set [1] and more than 1000 nM in data set [2].
On the same counts, the results for `Cn1cnc2ccc(Oc3ccccc3-c3cccc(F)c3)nc21` [Example 5, 5-(3′-fluorobiphenyl-2-yloxy)-3-methyl-3H-imidazo[4,5-b]pyridine] are not above 250 nM and 250 to 1000 nM.
For the compound `c1cc2ccc(OC3CCCCC3)nc2cn1` [Example 57, 2-(cyclohexyloxy)-1,7-naphthyridine], the IC50 in data set [1] was more than 1000 nM.
With `c1ccc(-c2ccccc2Oc2ccc3ccncc3n2)cc1` [Example 59, 2-([1,1′-biphenyl]-2-yloxy)-1,7-naphthyridine], the IC50 in data set [1] and in data set [2] was not above 250 nM in each case.
`c1ccc(-c2ccccc2Oc2ncc3cnccc3n2)cc1` [Example 22, 2-(biphenyl-2-yloxy)pyrido[4,3-d]pyrimidine]: the IC50 in data set [1] was not above 250 nM.
Same read-out and setting: next, `Cc1cccc(-c2ccccc2Oc2ccc3cnn(C)c3n2)c1` [Example 13, 1-methyl-6-(3′-methylbiphenyl-2-yloxy)-1H-pyrazolo[3,4-b]pyridine]: more than 1000 nM.
In the case of `Cc1cccc(-c2ccccc2Oc2ccc3ncn(C)c3n2)c1` [Example 4, 3-methyl-5-(3′-methylbiphenyl-2-yloxy)-3H-imidazo[4,5-b]pyridine], the IC50 in data set [2] is not above 250 nM.
For the compound `Cn1ncc2ccc(Oc3ccccc3-c3cccc(F)c3)nc21` [Example 14, 6-(3′-fluorobiphenyl-2-yloxy)-1-methyl-1H-pyrazolo[3,4-b]pyridine], in data set [1], the IC50 lay within 250 to 1000 nM.
For `c1ccc2c(Oc3ccc4cnccc4n3)cccc2c1` [Example 56, 2-(naphthalen-1-yloxy)-1,6-naphthyridine], the IC50 in data set [1] and in data set [2] was more than 1000 nM each time.
In the case of `COc1ccc2c(C(F)(F)F)cc(Oc3ccccc3-c3ccccn3)nc2c1` [Example 36, 7-methoxy-2-(2-(pyridin-2-yl)phenoxy)-4-(trifluoromethyl)quinoline], the IC50 in data set [1] was not above 250 nM.
As for `COc1ccc(-c2ccc(C(F)(F)F)cc2Oc2ccc3cnccc3n2)cc1` [Example 78, 2-((4′-methoxy-4-(trifluoromethyl)-[1,1′-biphenyl]-2-yl)oxy)-1,6-naphthyridine], in data set [3] (Table 4, female mice), the AUC(0-t) stood at 137 ng·h/mL, the highest level (Cmax) was 269 ng/mL and the Tmax was determined as 15 min. In data set [3] (Table 4, male mice), the AUC(0-t) was 343 ng·h/mL, the CL/F was 238 mL/min/kg, the peak level (Cmax) was 330 ng/mL and the Tmax was found to be 15 min. In data set [3] (Table 4, male mice), the half-life was 33 min and the Vd/F was found to be 11.3 L/kg.
For the compound `COc1ccc2c(C(F)(F)F)cc(SCC(=O)NCCc3ccc(F)cc3)nc2c1` [Example 62, N-(4-fluorophenethyl)-2-((7-methoxy-4-(trifluoromethyl)quinolin-2-yl)thio)acetamide], the IC50 in data set [1] was not above 250 nM.
Turning to `c1ccc2c(Oc3ccc4ccncc4n3)cccc2c1` [Example 54, 2-(naphthalen-1-yloxy)-1,7-naphthyridine], in data set [1], the IC50 was not above 250 nM.
Consider `FC(F)(F)c1cc(Oc2ccccc2-c2ccccc2)nc2ccccc12` [Example 34, 2-([1,1′-biphenyl]-2-yloxy)-4-(trifluoromethyl)quinoline], for which, in data set [2], the IC50 is more than 1000 nM.
For the compound `c1ccc(C2CCCCC2)c(Oc2ccc3cnccc3n2)c1` [Example 49, 2-(2-cyclohexylphenoxy)-1,6-naphthyridine], the IC50 in data set [1] lay in the range of 250 to 1000 nM.
Regarding `Cn1cnc2ccc(Oc3ccccc3-c3ccccc3)nc21` [Example 3, 5-([1,1′-biphenyl]-2-yloxy)-3-methyl-3H-imidazo[4,5-b]pyridine], the IC50 is 250 to 1000 nM in data set [1] and not above 250 nM in data set [2].
On to `CCOC(=O)N1CCC(CN(Cc2ccc(Cl)cc2)Cc2ccc([N+](=O)[O-])s2)C1` (stereo not shown) [SR9009], for which, in data set [4], the “reversing the cognitive decline” value is “effective in reversing the cognitive decline”.
